Assay results taken from US12473308B2, “Luminescent silafluorene and germafluorene compounds” (The Curators Of The University Of Missouri, priority 2019, dated 2025).
Entries after “also recorded” stand apart in the source; their conditions may differ.

Experiments:
[1] = Absorption and emission in CH2Cl2 solution and in the solid-state; type: physicochemical
Source text: (§1) These new compounds (3Si/3Ge through 8Si %8Ge) show a strong absorption band in CH2Cl2 solution in the region of 371-394 nm (log ε values ranged from 4.25-5.23) and emission maxima in the region of 401-452 nm. The quantum efficiencies determined from solution samples containing the silafluorenes 3Si-8Si were high (0.80-0.87) and the related germafluorenes 3Ge-8Ge had slightly lower values between 0.64-0.83. […] The solid-state quantum yields have been measured for several of the sila- and germafluorenes. The solid-state quantum yields for 7 compounds have been measured and the values range from 0.14 to 0.91 with the highest values for compounds 5Ge […] and 6Ge (0.81). Additional quantum yield measurements both in solution and in the solid-state are made for other compounds shown in Scheme 2 (FIG. 2).

[2] = Solid-state quantum yield; type: physicochemical
Source text: as §1

[3] = Solubility in DMSO and in aqueous solution; type: physicochemical; conditions: for solubility in aqueous solution: aqueous solutions / aqueous buffer, diluted from DMSO
Source text: Studies have been conducted herein for a series of silafluorenes with a broad range of alkynyl substituent groups: 3Si, 4Si, 7Si, […], 9Si, and 11Si, and 13Si. […] This provides a tunability to the optical behavior that is useful for bioimaging.
This provides a tunability to the optical behavior that is useful for imaging (FIG. 40).

[4] = Fluorescence change upon addition of detergent Triton X-100; conditions: for spectral change when Triton X-100 is added: neutral detergent Triton X-100
Protocol: Non-denaturing detergents, common proxies for membranes and lipids, were added to each compound. […] Moreover, the degree of enhancement is very sensitive to the aggregation state of the detergent: enhancement is more dramatic at concentrations at which the detergents are known to form micellar aggregates (critical micelle concentration).
Detergents enhance fluorescence. Triton X-100 (TX100) was added to each metallafluorene at concentrations below and above TX-100's CMC (0.3 mM), and fluorescence was measured (FIGS. 31A, 31B, and 32).
Non-denaturing detergents, common proxies for membranes and lipids, were added to each compound. […] Moreover, the degree of enhancement is very sensitive to the aggregation state of the detergent: enhancement is more dramatic at concentrations at which the detergents are known to form micellar aggregates (i.e. the critical micelle concentration).

[5] = tested on: calf thymus (mixed sequence) DNA; assay: Spectroscopic DNA binding study; conditions: aqueous buffer, calf thymus DNA added
[6] = tested on: yeast cells (S. cerevisiae); assay: Fluorescence confocal microscopy of yeast cells; type: cell-based; conditions: permeabilized with DMSO, 405 nm laser, 100×
Protocol: S. cerevisiae were stained with 2,7-bis(4-ethynylphenanthrene)-3,6-dimethoxy-9,9-diphenylsilafluorene, referred to as Si phenanthrene, for 1 hour, then imaged on a confocal microscope (FIGS. 35 and 36).
S. cerevisiae were stained with 2,7-bis(4-ethynylbenzaldehyde)-3,6-dimethoxy-9,9-diphenylsilafluorene, referred to as Si benzaldehyde, for 1 hour, then imaged on a confocal microscope (FIG. 37). Again, DMSO was used to permeabilize cells.

[7] = Quantum yield in CH2Cl2 (DCM) solution; type: physicochemical
Source text: as §1
The silafluorenes show intense fluorescence both in solution and in the solid-state (FIG. 11). The quantum yield range in CH2Cl2 solution is 0.80-0.89 for several silafluorenes studied to date.
(§2) Quantum yields were collected for these compounds in aqueous solution and in the presence of the aforementioned surfactants and the data are shown in Table 2. Quantum yields in the presence of surfactants are markedly higher than in their absence. In the presence of detergents, the quantum yield is recovered to near perfect quantum efficiency.

[8] = Quantum yield in aqueous solution (Tris) and in the presence of surfactants; type: physicochemical; conditions: for φTX (quantum yield): 0.6 mM TX-100; for φSBDS (quantum yield): 10 mM SDBS; for φCTAB (quantum yield): 20 mM CTAB; for φCHAPS (quantum yield): 25 mM CHAPS; for φSDS (quantum yield): 30 mM SDS; for φTris (quantum yield): aqueous solution, Tris, no surfactant
Protocol: as §2
(§3) The surfactants are 0.6 mM TX-100, 25 mM CHAPS, 20 mM CTAB, 30 mM SDS, and 10 mM SDBS. ExpiCHO cells were stained with 10 μM 3Si for 15 minutes. Experimental details include Gains: 762; Digital gains: 2.3; Pinhole: 1 AU; and 2% Laser intensity.

[9] = tested on: ExpiCHO cells; assay: Fluorescence staining of CHO cells; type: cell-based; conditions: 10 μM, 15 minutes
Protocol: as §3

[10] = Solvatochromism: emission in different solvents; type: physicochemical
Source text: Solvents, like water and dichloromethane, greatly affect the fluorescence energy (i.e., color) of some molecules—this is called solvatochromism. Excited electrons may mobilize across the molecule more easily in these cases. For example, 2,7-bis(4-ethynylbenzaldehyde)-3,6-dimethoxysilafluorene emits green in ethanol, but blue in nonpolar solvents (FIGS. 23-24).

| SMILES | solubility in DMSO [3] | solubility in aqueous solution [3] | spectral change when Triton X-100 is added [4] | φDCM (quantum yield) [7] | φTX (quantum yield) [8] | φSBDS (quantum yield) [8] | φCTAB (quantum yield) [8] | φCHAPS (quantum yield) [8] | φSDS (quantum yield) [8] | φTris (quantum yield) [8] | also measured |
| --- | --- | --- | --- | --- | --- | --- | --- | --- | --- | --- | --- |
| COc1cc2c(cc1C#Cc1cccc(F)c1)[Si](c1ccccc1)(c1ccccc1)c1cc(C#Cc3cccc(F)c3)c(OC)cc1-2 [meta-fluoro-silafluorene] | – | – | – | – | – | – | – | – | – | – | emission (in words) ([1]; methylene chloride solution and solid state): strong emission |
| COc1cc2[c](cc1C#Cc1ccc(C(C)(C)C)cc1)[Ge]([c]1ccccc1)([c]1ccccc1)[c]1cc(C#Cc3ccc(C(C)(C)C)cc3)c(OC)cc1-2 [5Ge] | – | – | – | – | – | – | – | – | – | – | solid-state quantum yield [2]: 0.92 |
| COc1cc2c(cc1C#Cc1cccc3ccc4ccccc4c13)[Si](c1ccccc1)(c1ccccc1)c1cc(C#Cc3cccc4ccc5ccccc5c34)c(OC)cc1-2 [9Si, 2,7-bis(4-ethynylphenanthrene)-3,6-dimethoxy-9,9-diphenylsilafluorene] | low millimolar concentrations; also recorded: low micromolar concentrations | low micromolar concentrations | dramatic blue shifts and emission enhancements | – | – | – | – | – | – | – | solubility in DMSO ([3]; listed as 9.1): least soluble; solubility in aqueous solution ([3]; listed as 2,7-bis-alkynyl(phenanthrene)silafluorene): low micromolar concentration; emission enhancement upon the addition of detergent/membrane mimics (comparison) [4]: greatest emission enhancement; change of fluorescence emission upon addition of DNA [5]: decrease in fluorescence emission; staining pattern in cells [6]: either localizing onto an intracellular structure or self-aggregating within the cell |
| COc1ccc2cc(C#Cc3c[c]4c(cc3OC)-c3cc(OC)c(C#Cc5ccc6cc(OC)ccc6c5)c[c]3[Ge]4([c]3ccccc3)[c]3ccccc3)ccc2c1 [8Ge] | low millimolar concentrations; also recorded: low micromolar concentrations | low micromolar concentrations | – | 0.75 | 0.85 ± 0.06 | 0.47 | 0.99 | 0.93 | 0.30 | 0.094 ± 0.01 | – |
| COc1cc2c(cc1C#Cc1cccc(F)c1)[Si](c1ccccc1)(c1ccccc1)c1cc(C#Cc3cccc(F)c3)c(OC)cc1-2 [3Si] | – | low micromolar concentrations | dramatic blue shifts and emission enhancements | 0.80 | 1.0 ± 0.04 | 0.49 ± 0.09 | 0.98 | 0.90 ± 0.02 | 0.55 ± 0.03 | 0.34 ± 0.005 | emission enhancement upon the addition of detergent/membrane mimics (comparison) [4]: comparable; fluorescence inside cells [9]: observed inside of CHO cells |
| COc1cc2c(cc1C#Cc1ccc(C=O)cc1)[Si](c1ccccc1)(c1ccccc1)c1cc(C#Cc3ccc(C=O)cc3)c(OC)cc1-2 [13Si, 2,7-bis(4-ethynylbenzaldehyde)-3,6-dimethoxy-9,9-diphenylsilafluorene] | low millimolar concentrations; also recorded: low micromolar concentrations | low micromolar concentrations | dramatic blue shifts and emission enhancements | – | – | – | – | – | – | – | emission enhancement upon the addition of detergent/membrane mimics (comparison) [4]: comparable; staining pattern in cells [6]: staining diffuse throughout the cell; emission λmax depending on the solvent ([10]; ethanol, dichloromethane, hexanes): 440-550 nm; emission colour ([10]; in ethanol): green; emission colour ([10]; in nonpolar solvents): blue |
| FC(F)(F)c1ccc(C#Cc2cc[c]3c(c2)-c2cc(C#Cc4ccc(C(F)(F)F)cc4)cc[c]2[Ge]3([c]2ccccc2)[c]2ccccc2)cc1 [16Ge] | – | – | – | – | – | – | – | – | – | – | shift of absorbance and emission compared to related 2,7-disubstituted derivatives ([1]; 3,6-disubstituted versus 2,7-disubstituted): significant blue-shift; absorption maximum ([1]; CH2Cl2 solution): 288 nm; emission maximum ([1]; CH2Cl2 solution): 352 nm; emission from the solid-state ([1]; solid-state): 393 nm |
| COc1cc2c(cc1C#Cc1ccc(-c3ccccc3)cc1)[Si](c1ccccc1)(c1ccccc1)c1cc(C#Cc3ccc(-c4ccccc4)cc3)c(OC)cc1-2 [7Si] | low millimolar concentrations; also recorded: low micromolar concentrations; also recorded: least soluble | low micromolar concentrations | – | 0.82 | 0.94 ± 0.05 | 0.73 | 0.93 | 0.32 | 0.88 ± 0.05 | 0.11 ± 0.01 | – |
| COc1cc2[c](cc1C#Cc1ccc(Oc3ccccc3)cc1)[Ge]([c]1ccccc1)([c]1ccccc1)[c]1cc(C#Cc3ccc(Oc4ccccc4)cc3)c(OC)cc1-2 [6Ge] | – | – | – | – | – | – | – | – | – | – | solid-state quantum yield [2]: 0.81 |
| COc1cc2c(cc1C#Cc1ccc(C)cc1)[Si](c1ccccc1)(c1ccccc1)c1cc(C#Cc3ccc(C)cc3)c(OC)cc1-2 [4Si] | low millimolar concentrations; also recorded: low micromolar concentrations | low micromolar concentrations | dramatic blue shifts and emission enhancements | 0.89 | 0.97 ± 0.04 | 0.56 | 0.93 | 0.86 | 0.55 | 0.24 ± 0.01 | – |
| COc1cc2c(cc1C#Cc1ccc(-n3c4ccccc4c4ccccc43)cc1)[Si](c1ccccc1)(c1ccccc1)c1cc(C#Cc3ccc(-n4c5ccccc5c5ccccc54)cc3)c(OC)cc1-2 [11Si] | low millimolar concentrations; also recorded: low micromolar concentrations | low micromolar concentrations | – | – | – | – | – | – | – | – | – |
